This note sets out measurements from ChEMBL document CHEMBL5233262, “Anti-inflammatory activity of naturally occuring diarylheptanoids - A review” (Bioorg Med Chem, 2021).

In this test the test system is RAW264.7. Kind of test: Antiinflammatory activity in mouse RAW264.7 cells assessed as inhibition of LPS-induced NO production by Griess method. In kind it is functional, cell-based. (Nitrite, measured by Griess reagent, commonly stands in for NO production.)

Usually IC50 stands for the concentration that gives 50% inhibition.

The structures appear in SMILES notation. Where only a bound is given, the exact number is not on record here.

Turning to `COc1cc(C(=O)[C@@H](O)[C@@H]2CCC[C@H](c3ccc(O)c(OC)c3)O2)ccc1O`, the IC50 amounted to 38.9 µM.

With `COc1cc(C[C@H]2O[C@@H](CC(=O)c3ccc(O)c(OC)c3)C[C@H]2O)ccc1O`, the half-maximal inhibitory concentration (IC50) is above 100 µM.
